Legend:
[1] = compound: C=CC(=O)Nc1ccc(C(=O)Nc2[nH]nc3c2CN(C(=O)N[C@H](CN(C)C)c2ccccc2)C3(C)C)cc1 [YKL-5-124]; experiment: increase in dead-cell fraction, 72 h; higher = more death;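 note: breast cancer cell lines in 384-well plates, stained with Hoechst plus LIVE/DEAD far red dye and imaged, cells above an LDR intensity threshold counted dead, Hoechst-negative corpses included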
[2] = compound: CC(=O)c1c(C)c2cnc(Nc3ccc(N4CCN(CCOCCOCCOCCNC(=O)COc5cccc6c5C(=O)N(C5CCC(=O)NC5=O)C6=O)CC4)cn3)nc2n(C2CCCC2)c1=O [BSJ-03-123]; experiment: as above
[3] = compound: CC(=O)c1c(C)c2cnc(Nc3ccc(N4CCNCC4)cn3)nc2n(C2CCCC2)c1=O; experiment: as above
[4] = compound: CCN1CCN(Cc2ccc(Nc3ncc(F)c(-c4cc(F)c5nc(C)n(C(C)C)c5c4)n3)nc2)CC1; experiment: as above
[5] = compound: T1, CCOc1cc2ncc(C#N)c(Nc3ccc(OCc4ccccn4)c(Cl)c3)c2cc1NC(=O)/C=C/CN(C)C [Neratinib/HKI272]; experiment: as above
[6] = compound: CCc1cnn2c(NCc3ccc[n+]([O-])c3)cc(N3CCCC[C@H]3CCO)nc12; experiment: as above
[7] = compound: CN(C)C(=O)c1cc2cnc(Nc3ccc(N4CCNCC4)cn3)nc2n1C1CCCC1 [LEE011/Ribociclib]; experiment: as above
[8] = compound: CN(C)C/C=C/C(=O)Nc1ccc(C(=O)N2CCC[C@@H](Nc3ncc(Cl)c(-c4c[nH]c5ccccc45)n3)C2)cc1 [THZ531]; experiment: as above
[9] = compound: T2, CN(C)C/C=C/C(=O)Nc1ccc(C(=O)Nc2cccc(Nc3ncc(Cl)c(-c4c[nH]c5ccccc45)n3)c2)cc1 [THZ1]; experiment: as above
[10] = compound: CN1CC[C@H](c2c(O)cc(O)c3c(=O)cc(-c4ccccc4Cl)oc23)[C@H](O)C1 [Flavopiridol]; experiment: as above
[11] = compound: T1, Neratinib/HKI272; experiment: GR value, 72 h; higher = faster growth (1 = untreated, <0 = killing);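 note: breast cancer and non-malignant breast epithelial lines, nine half-log doses, viable cells counted by Hoechst and LIVE/DEAD dye imaging versus time-zero plates and DMSO controls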
[12] = compound: T2, THZ1; experiment: as above

Cell Line: SKBR3
- increase in dead-cell fraction ([1]; 0.001 µM): 0.0064
- increase in dead-cell fraction ([1]; 0.003162 µM): 0.0231
- increase in dead-cell fraction ([1]; 0.01 µM): 0.0496
- increase in dead-cell fraction ([1]; 0.03162 µM): 0.0434
- increase in dead-cell fraction ([1]; 0.1 µM): 0.0537
- increase in dead-cell fraction ([1]; 0.3162 µM): 0.0626
- increase in dead-cell fraction ([1]; 1 µM): 0.0336
- increase in dead-cell fraction ([1]; 3.162 µM): 0.0844
- increase in dead-cell fraction ([1]; 10 µM): 0.316
- increase in dead-cell fraction ([2]; 0.001 µM): -0.001
- increase in dead-cell fraction ([2]; 0.003162 µM): 0.0008
- increase in dead-cell fraction ([2]; 0.01 µM): 0.0041
- increase in dead-cell fraction ([2]; 0.03162 µM): -0.0049
- increase in dead-cell fraction ([2]; 0.1 µM): 0.0076
- increase in dead-cell fraction ([2]; 0.3162 µM): -0.0004
- increase in dead-cell fraction ([2]; 1 µM): 0.0088
- increase in dead-cell fraction ([2]; 3.162 µM): 0.0136
- increase in dead-cell fraction ([2]; 10 µM): 0.15
- increase in dead-cell fraction ([3]; 0.0003162 µM): -0.0013
- increase in dead-cell fraction ([3]; 0.001 µM): 0.0036
- increase in dead-cell fraction ([3]; 0.003162 µM): 0.0075
- increase in dead-cell fraction ([3]; 0.01 µM): 0.015
- increase in dead-cell fraction ([3]; 0.03162 µM): 0.0198
- increase in dead-cell fraction ([3]; 0.1 µM): 0.0318
- increase in dead-cell fraction ([3]; 0.3162 µM): 0.0437
- increase in dead-cell fraction ([3]; 1 µM): 0.0364
- increase in dead-cell fraction ([3]; 3.162 µM): 0.0469
- increase in dead-cell fraction ([4]; 0.001 µM): 0.0059
- increase in dead-cell fraction ([4]; 0.003162 µM): 0.003
- increase in dead-cell fraction ([4]; 0.01 µM): 0.0233
- increase in dead-cell fraction ([4]; 0.03162 µM): 0.0346
- increase in dead-cell fraction ([4]; 0.1 µM): 0.0399
- increase in dead-cell fraction ([4]; 0.3162 µM): 0.0362
- increase in dead-cell fraction ([4]; 1 µM): 0.0582
- increase in dead-cell fraction ([4]; 3.162 µM): 0.0358
- increase in dead-cell fraction ([4]; 10 µM): 0.0879
- increase in dead-cell fraction ([5]; 0.0003162 µM): 0.0178
- increase in dead-cell fraction ([5]; 0.001 µM): 0.0381
- increase in dead-cell fraction ([5]; 0.003162 µM): 0.111
- increase in dead-cell fraction ([5]; 0.01 µM): 0.156
- increase in dead-cell fraction ([5]; 0.03162 µM): 0.222
- increase in dead-cell fraction ([5]; 0.1 µM): 0.24
- increase in dead-cell fraction ([5]; 0.3162 µM): 0.303
- increase in dead-cell fraction ([5]; 1 µM): 0.362
- increase in dead-cell fraction ([5]; 3.162 µM): 0.364
- increase in dead-cell fraction ([6]; 0.0001 µM): 0.0102
- increase in dead-cell fraction ([6]; 0.0003162 µM): 0.0115
- increase in dead-cell fraction ([6]; 0.001 µM): 0.0049
- increase in dead-cell fraction ([6]; 0.003162 µM): 0.011
- increase in dead-cell fraction ([6]; 0.01 µM): 0.303
- increase in dead-cell fraction ([6]; 0.03162 µM): 0.574
- increase in dead-cell fraction ([6]; 0.1 µM): 0.595
- increase in dead-cell fraction ([6]; 0.3162 µM): 0.612
- increase in dead-cell fraction ([6]; 1 µM): 0.583
- increase in dead-cell fraction ([7]; 0.001 µM): -0.0002
- increase in dead-cell fraction ([7]; 0.003162 µM): -0.0049
- increase in dead-cell fraction ([7]; 0.01 µM): 0.0112
- increase in dead-cell fraction ([7]; 0.03162 µM): 0.0071
- increase in dead-cell fraction ([7]; 0.1 µM): 0.0105
- increase in dead-cell fraction ([7]; 0.3162 µM): 0.0092
- increase in dead-cell fraction ([7]; 1 µM): 0.0206
- increase in dead-cell fraction ([7]; 3.162 µM): 0.0182
- increase in dead-cell fraction ([7]; 10 µM): 0.0119
- increase in dead-cell fraction ([8]; 0.0001 µM): 0.0012
- increase in dead-cell fraction ([8]; 0.0003162 µM): 0.0021
- increase in dead-cell fraction ([8]; 0.001 µM): 0.0015
- increase in dead-cell fraction ([8]; 0.003162 µM): -0.0089
- increase in dead-cell fraction ([8]; 0.01 µM): -0.0005
- increase in dead-cell fraction ([8]; 0.03162 µM): 0.053
- increase in dead-cell fraction ([8]; 0.1 µM): 0.155
- increase in dead-cell fraction ([8]; 0.3162 µM): 0.175
- increase in dead-cell fraction ([8]; 1 µM): 0.338
- increase in dead-cell fraction ([9]; 0.0001 µM): -0.0092
- increase in dead-cell fraction ([9]; 0.0003162 µM): 0.0042
- increase in dead-cell fraction ([9]; 0.001 µM): 0.0058
- increase in dead-cell fraction ([9]; 0.003162 µM): -0.0046
- increase in dead-cell fraction ([9]; 0.01 µM): -0.0004
- increase in dead-cell fraction ([9]; 0.03162 µM): 0.0505
- increase in dead-cell fraction ([9]; 0.1 µM): 0.237
- increase in dead-cell fraction ([9]; 0.3162 µM): 0.33
- increase in dead-cell fraction ([9]; 1 µM): 0.491
- increase in dead-cell fraction ([10]; 0.0001 µM): -0.0025
- increase in dead-cell fraction ([10]; 0.0003162 µM): -0.0004
- increase in dead-cell fraction ([10]; 0.001 µM): 0.0053
- increase in dead-cell fraction ([10]; 0.003162 µM): -0.001
- increase in dead-cell fraction ([10]; 0.01 µM): -0.0038
- increase in dead-cell fraction ([10]; 0.03162 µM): -0.0082
- increase in dead-cell fraction ([10]; 0.1 µM): 0.0051
- increase in dead-cell fraction ([10]; 0.3162 µM): 0.0663
- increase in dead-cell fraction ([10]; 1 µM): 0.417
- GR value ([11]; 0.0003162 µM): 0.841 GR
- GR value ([11]; 0.001 µM): 0.631 GR
- GR value ([11]; 0.003162 µM): 0.264 GR
- GR value ([11]; 0.01 µM): 0.0804 GR
- GR value ([11]; 0.03162 µM): 0.0019 GR
- GR value ([11]; 0.1 µM): -0.0509 GR
- GR value ([11]; 0.3162 µM): -0.163 GR
- GR value ([11]; 1 µM): -0.252 GR
- GR value ([11]; 3.162 µM): -0.246 GR
- GR value ([12]; 0.0001 µM): 1.08 GR
- GR value ([12]; 0.0003162 µM): 1.06 GR
- GR value ([12]; 0.001 µM): 0.867 GR
- GR value ([12]; 0.003162 µM): 0.854 GR
- GR value ([12]; 0.01 µM): 0.743 GR
- GR value ([12]; 0.03162 µM): 0.0057 GR
- GR value ([12]; 0.1 µM): -0.515 GR
- GR value ([12]; 0.3162 µM): -0.579 GR
- GR value ([12]; 1 µM): -0.789 GR

Source: the supplement of paper PMC9663587
